Measured values as given in PMC10515640, “Structure-Based Optimization of Covalent, Small-Molecule Stabilizers of the 14-3-3σ/ERα Protein–Protein Interaction from Nonselective Fragments” (Journal of the American Chemical Society, 2023).

Tests used:
14-3-3σ = target: T1, 14-3-3σ (Homo sapiens, UniProt P31947); experiment: Mass spectrometry dose response, compound binding to 14-3-3σ in the absence of peptide (apo); details: 100 nM compound, 100 nM 14-3-3σ
T1 construct: The 14-3-3 σ isoform (full-length for mass spectrometry and fluorescence anisotropy assays, ΔC for crystallography); made in house; host or cells: E. coli Rosetta 2(DE3)pLysS, pPROEX HTb vector
T1 sequence (P31947 1-248): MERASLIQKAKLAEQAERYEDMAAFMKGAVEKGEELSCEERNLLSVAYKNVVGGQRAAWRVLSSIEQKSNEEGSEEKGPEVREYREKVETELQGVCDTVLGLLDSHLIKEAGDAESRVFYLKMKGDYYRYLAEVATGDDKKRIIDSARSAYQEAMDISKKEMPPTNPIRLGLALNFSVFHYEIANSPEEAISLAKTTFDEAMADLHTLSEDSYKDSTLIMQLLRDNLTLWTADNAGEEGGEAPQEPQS
Text: (§1) Two orthogonal assays were developed for screening. For the primary assay, mass spectrometry (MS) was used to monitor the formation of the covalent bond between the compound and the native cysteine (Cys38 on 14-3-3σ) (Figure 1D). The assay was first performed in the absence of peptide to determine binding to 14-3-3σ only (apo screening, D1) and then in the presence of both 14-3-3σ and the peptide as an indication of how much the peptide stabilized compound binding (D2). […] As a secondary assay, fluorescence anisotropy (FA) was used. In this case, compounds were titrated to mixtures of 14-3-3σ and FAM-labeled peptides. […] Thus, the two assays are highly complementary; the MS assay reports on compound binding and the FA assay reports on peptide binding. […]
(§2) Mass spectrometry dose response assays were performed on a Waters Acquity UPLC/ Xevo G2-XS Q-Tof mass spectrometer. A Waters UPLC Protein BEH-C4 Column (300 Å, 1.7 μm, 2.1 mm x 50 mm) was used to desalt the samples prior to application on the mass spectrometer. For 19-point MS dose responses, 50 mM compound stocks in DMSO were serially diluted in 3-fold increment in a master plate, then 1000 nl of the compounds were transferred in the assay plates. Master mixes containing 100 nM full-length wild type 14-3-3σ in the absence or presence of […]
(§3) Assay buffer was TRIS (10 mM, pH 8.0) and final volume per well was 50 μl, with final top concentration of compounds dose response series at 1 mM. The reaction mixtures were incubated for 1h at rt before subjected to MS. Four measurements (1h, 8h, 16h, 24h) were performed for time-course experiments. The injection volume for each sample was 6 μl. 24 μl of sample were needed for the time-course experiments, so the total volume in the assay plate was adjusted to 50 μl, to account for the dead volume in the injections. Data collection and automated processing followed a custom workflow, as previously described.1 z Plots were created using GraphPad Prism with the log(agonist) vs. response (variable slope, four parameters) fitting model. […]

14-3-3σ/C-RAF [1] = target: T2, 14-3-3σ/C-RAF (Homo sapiens, UniProt P31947); experiment: Fluorescence anisotropy compound titration, FAM-labeled C-RAF peptide; assay type: binding; details: 10 nM C-RAF-FAM labeled peptide, 5 µM 14-3-3σ, overnight incubation; read-out: EC50 value C-RAF (FA compound titration)
T2 construct: The 14-3-3 σ isoform (full-length for mass spectrometry and fluorescence anisotropy assays, ΔC for crystallography); made in house; host or cells: E. coli Rosetta 2(DE3)pLysS, pPROEX HTb vector
T2 sequence (P31947 1-248): T1 sequence (P31947 1-248)
Text: as §1
(§4) diluted in buffer (10 mM HEPES, pH 7.5, 150 mM NaCl, 0.1% Tween20, 1 mg/mL Bovine Serum Albumin (BSA; Sigma-Aldrich). Final DMSO in the assay was always 1%. Dilution series of 14-3-3 proteins or compounds were made in […]
(§5) Compound titrations were made by titrating the compound in a 2-fold dilution series (starting at 500 or 1000 µM) to a mix of fluorescein-labeled peptide (10 nM) and 14-3-3σ (concentration at approximately the EC20 to EC30 value of the protein-peptide complex; 1 µM for ERα and 5 µM for C-RAF). Using the ~EC25 value makes the assay sensitive for measuring an increase in PPI formation. Fluorescence anisotropy measurements were performed directly and after overnight incubation at room temperature. […]
(§6) Wells containing only FAM-peptide were used to set as G-factor at 35 mP. Data reported are at endpoint. EC50 and apparent Kd values were obtained from fitting the data with a four-parameter logistic model (4PL) in GraphPad Prism 7 for Windows. Data was obtained and averaged based on either three (compound titrations) or two (protein titrations) independent experiments.

14-3-3σ/ERα [2] = target: T3, 14-3-3σ/ERα (Homo sapiens, UniProt P03372+P31947); experiment: Mass spectrometry dose response, compound binding to 14-3-3σ in the presence of ERα phosphopeptide; details: 100 nM compound, 100 nM 14-3-3σ, ERα-peptide 2 µM
T3 construct: The 14-3-3 σ isoform (full-length for mass spectrometry and fluorescence anisotropy assays, ΔC for crystallography); made in house; host or cells: E. coli Rosetta 2(DE3)pLysS, pPROEX HTb vector
Text: as §1, §2, §3

14-3-3σ/C-RAF [3] = target: T2, 14-3-3σ/C-RAF; experiment: Mass spectrometry dose response, compound binding to 14-3-3σ in the presence of C-RAF phosphopeptide; details: 100 nM compound, 100 nM 14-3-3σ, C-RAF peptide 18 µM
Text: as §1, §2, §3

14-3-3σ/ERα [4] = target: T3, 14-3-3σ/ERα; experiment: Fluorescence anisotropy compound titration, FAM-labeled ERα peptide; assay type: binding; details: 10 nM ERα-FAM labeled peptide, 1 µM 14-3-3σ, overnight incubation (24 h); read-out: EC50 value ERα (FA compound titration)
Text: as §1, §4, §5, §6

Structure (SMILES)	Percentage (%) bound of compound to 14-3-3σ, APO 1h (14-3-3σ) [%]	Percentage (%) bound of compound to 14-3-3σ, APO 8h (14-3-3σ) [%]	Percentage (%) bound of compound to 14-3-3σ, APO 16h (14-3-3σ) [%]	Percentage (%) bound of compound to 14-3-3σ, APO 24h (14-3-3σ) [%]	EC50 (14-3-3σ/C-RAF [1]) [µM]	Percentage (%) bound of compound to 14-3-3σ, ERα 1h (14-3-3σ/ERα [2]) [%]	Percentage (%) bound of compound to 14-3-3σ, ERα 8h (14-3-3σ/ERα [2]) [%]	Percentage (%) bound of compound to 14-3-3σ, ERα 16h (14-3-3σ/ERα [2]) [%]	Percentage (%) bound of compound to 14-3-3σ, ERα 24h (14-3-3σ/ERα [2]) [%]	Percentage (%) bound of compound to 14-3-3σ, CRAF 1h (14-3-3σ/C-RAF [3]) [%]	Percentage (%) bound of compound to 14-3-3σ, CRAF 8h (14-3-3σ/C-RAF [3]) [%]	Percentage (%) bound of compound to 14-3-3σ, CRAF 24h (14-3-3σ/C-RAF [3]; 24h) [%]	Percentage (%) bound of compound to 14-3-3σ, CRAF 24h (14-3-3σ/C-RAF [3]; head prints 24h) [%]	EC50 (14-3-3σ/ERα [4]) [µM]
O=C(CCl)NCC1CCN(C(=O)C2(Oc3ccc(Cl)cc3)CCC(F)(F)CC2)CC1 [compound 124]	0	1.0	1.4	1.6	> 150	7.4	15.3	33.4	66.9	2.0	2.9	15.3	9.1	18 ± 0.4
O=C(CCl)N1CCC2(CC1)CC(CNC(=O)C1(Nc3ccc(Cl)cc3)CCOCC1)C2 [compound 175]	1.9	5.4	10.6	16.7	> 150	21.7	39.4	64.1	87.3	2.4	6.0	17.4	9.6	15 ± 2
O=C(CCl)NCC1CCN(C(=O)C2(Oc3ccc(Cl)cc3)CC2)CC1 [compound 93]	0	0	0	0	> 150	0	0.9	1.1	1.7	0.1	0.1	2.3	0.1	68 ± 2
CC(C)(Oc1ccc(Cl)cc1)C(=O)N1CCC(CCCNC(=O)CCl)CC1 [compound 29]	0	0	0	0	142 ± 40	0.4	1.0	3.1	11.0	1.0	1.0	18.9	7.1	9 ± 0.4
CC(C)(Oc1ccc(Cl)cc1)C(=O)N1CCC(NC(=O)CCl)CC1 [compound 26]	0	0	0	0	> 150	0	0	0	1.8	0.0	1.0	4.3	2.6	> 150

The remaining lines, values ahead:

Percentage (%) bound of compound to 14-3-3σ, APO 1h (14-3-3σ) [%]	Percentage (%) bound of compound to 14-3-3σ, APO 8h (14-3-3σ) [%]	Percentage (%) bound of compound to 14-3-3σ, APO 16h (14-3-3σ) [%]	Percentage (%) bound of compound to 14-3-3σ, APO 24h (14-3-3σ) [%]	EC50 (14-3-3σ/C-RAF [1]) [µM]	Percentage (%) bound of compound to 14-3-3σ, ERα 1h (14-3-3σ/ERα [2]) [%]	Percentage (%) bound of compound to 14-3-3σ, ERα 8h (14-3-3σ/ERα [2]) [%]	Percentage (%) bound of compound to 14-3-3σ, ERα 16h (14-3-3σ/ERα [2]) [%]	Percentage (%) bound of compound to 14-3-3σ, ERα 24h (14-3-3σ/ERα [2]) [%]	Percentage (%) bound of compound to 14-3-3σ, CRAF 1h (14-3-3σ/C-RAF [3]) [%]	Percentage (%) bound of compound to 14-3-3σ, CRAF 8h (14-3-3σ/C-RAF [3]) [%]	Percentage (%) bound of compound to 14-3-3σ, CRAF 24h (14-3-3σ/C-RAF [3]; 24h) [%]	Percentage (%) bound of compound to 14-3-3σ, CRAF 24h (14-3-3σ/C-RAF [3]; head prints 24h) [%]	EC50 (14-3-3σ/ERα [4]) [µM]	Structure (SMILES)
0	1.0	1.0	2.5	18 ± 0.3	1.9	5.3	10.9	21.0	6.2	19.7	53.6	28.5	24 ± 2	O=C(CCl)NCC1CCN(C(=O)C2(Oc3ccccc3)CCCC2)CC1 [compound 119]
0	0	0.8	1.3	> 150	1.6	7.1	11.5	32.3	1.5	4.8	17.5	8.9	55 ± 14	O=C(CCl)NCC1CCN(C(=O)C2(Oc3ccc(Cl)cc3)CCCCC2)CC1 [compound 122]
0	0.3	0.8	1.1	32 ± 8	5.6	15.7	34.4	63.7	10.7	21.4	47.3	33.7	15 ± 2	O=C(CCl)NCC1CCN(C(=O)C2(Oc3ccc(Cl)cc3)CCCC2)CC1 [compound 117]
0	0	0	0	> 150	0	0	0	4.5	0	0	0	0	> 150	O=C(CCl)NCC1CCN(C(=O)C2(Nc3ccccc3)CCCC2)CC1 [compound 120]
